Experimental data taken from patent publication US20190307771A1, “METHODS AND COMPOSITIONS FOR THE TREATMENT OF CANCER AND METABOLIC DISEASES” (THE REGENTS OF THE UNIVERSITY OF CALIFORNIA, priority 2016, published 2019).
Entries after “also recorded” stand apart in the source; their conditions may differ.

Experiments:
[1] = system: liver cancer cells (Huh7, Hep3B, HepG2); conditions: cited from earlier work; for Apoptosis of liver cancer cells: published studies
[2] = system: HDAC1, HDAC4, SIRT1, cyclin A2 (CCNA2); test: Western blot of protein deacetylases and cyclin A2 in HCT116 cells; format: cell-based; conditions: 24 hours, RA 10 μM, butyrate 5 mM, SAHA 5 μM
DLD-1 colon cancer cells = test: Cell viability of DLD-1 cells; conditions: 48 hours, RA 10 μM, butyrate 5 mM, propionate 10 mM, valerate 10 mM, SAHA 5 μM, vs. DMSO
Experimental: HCT116 and DLD-1 colon cancer cells were treated with dimethyl sulfoxide (DMSO) only (as a negative control), RA (10 μM), Fenretinide (10 μM), or an HDAC inhibitor. […] SCFAs were selected from butyrate (5 mM), propionate (10 mM), and valerate (10 mM). Some HCT116 and DLD-1 cells were treated separately with a combination of RA and one of the SCFAs. Cells were treated for 48 hours before viability was assessed.

RARB and NUR77 genes = test: ChIP-qPCR: HDAC recruitment and H3K9 acetylation at RARB and NUR77 genes in HCT116 cells; format: cell-based; conditions: RA 10 μM, butyrate 5 mM, SAHA 5 μM
Experimental: Cell lysates were used for ChIP with antibodies specific for HDAC1, HDAC4, SIRT1, or acetylated H3K9, followed by qPCR using primers specific for the RARB and NUR77 genes. DMSO treated cells and IP using IgG were included as negative controls. […]inding was expressed relative to the IgG negative controls.
(§1) Chromatin immunoprecipitation (ChIP)-qPCR ChIP-qPCR was performed as described previously^21. Briefly, chromatin lysate was precleared before incubation with an anti-H3K9AC antibody (Millipore. Billerica, Mass.), anti-HDAC1 and anti-HDAC4 (Cell signaling technology, Beverly, Mass.) or anti-SIRT1 antibody (Santa Cruz Biotechnology, Santa Cruz, Calif.). IgG (Santa Cruz Biotechnology, Santa Cruz, Calif.) and RNA Polymerase II antibody (Millipore, Billerica, Mass.) were used as negative and positive controls, respectively. Samples were incubated with Dynase beads at 4° C. overnight followed by de-crosslinking and purification. DNA fragments generated served as templates for qPCR using Power SYBR1 Green PCR Master Mix.

[3] = system: retinoic acid receptor beta (RARβ); test: RARB expression in HCT116 cells (qRT-PCR); format: cell-based; conditions: 24 hours, RA 10 μM, butyrate 5 mM, SAHA 5 μM
Experimental: (§2) Total RNA was extracted with TRIzol Reagent (Invitrogen, Carlsbad, Calif.), and cDNA was generated using High Capacity RNA-to-cDNA Kit (Applied Biosystems, Carlsbad, Calif.). qRT-PCR was performed on ABI 7900HT Fast Real time PCR system using Power SYBR® Green PCR Master Mix (Applied Biosystems, Carlsbad, Calif.).

[4] = cited from earlier work
NUR77 = test: ChIP-qPCR and RT-PCR: NUR77 binding to BRE and CCND2 and their mRNA; format: cell-based; conditions: HCT116 cells
Experimental: NUR77 and RARβ acetylation status was also studied because protein acetylation alters nuclear receptor activity^37. […] To study the effect of RA/butyrate in modulating NUR77 and RARβ transcriptional activity, ChIP-qPCR and RT-PCR were performed to determine receptor binding to transcriptional regulatory regions and mRNA levels of downstream targets, respectively.
as §1

NUR77 and RARβ = test: Induction and localization of NUR77 and RARβ in HCT116 cells; format: cell-based; conditions: 48 hours, RA 10 μM, butyrate 5 mM, SAHA 5 μM, EGF 32 nM
Experimental: Proteins were immunoprecipitated by anti-NUR77 or anti-RARβ antibodies, or IgG, followed by Western blot using anti-RARβ or anti-NUR77 antibodies.
To study the effect of miR-22 in induction of cytosolic NUR77 by RA/butyrate, adenoviral-delivery of miR-22 inhibitors tagged with green fluorescence (adeno-miR-22 inhibitor-GFP, Applied Biological Materials Inc, Richond, BC) were used to infect HCT116 cells. At 48 hours post adenoviral infection, cells were treated with RA (10 μM) plus butyrate (5 mM) or DMSO for 24 hours. […] Cells were mounted in ProLong® Gold Antifade Reagent with DAPI (4′,6-diamidino-2-phenylindole, Life Technologies, Carlsbad, Calif.) and imaged under Keyence BZ-9000 microscope.

[5] = system: Gpr41, Gpr43, Gpr109a, Pgc1α, Pepck, Fas; test: Ileal and hepatic mRNA levels in mice after oral gavage; format: in vivo, C57BL/6 mice; conditions: RA 15 mg/kg and/or butyrate 500 mg/kg, oral gavage every other day for one week
miR-22 [6] = test: miR-22 expression in HCT116 cells (qRT-PCR); format: cell-based; conditions: 24 hours, RA 10 μM, butyrate 5 mM, propionate 10 mM, valerate 10 mM, SAHA 5 μM
Experimental: To study the effect of RA and HDAC inhibitors on miR-22 expression, HCT116 cells were treated with RA, butyrate, propionate, valerate, and SAHA. The SCFA concentrations used were within physiologic ranges^35.
as §2

[7] = system: liver cancer cells (Huh7, Hep3B, HepG2); test: Apoptosis of liver cancer cells; conditions: prevented by NUR77 siRNA
[8] = cited from earlier work; remark: listed apart in the source
[9] = T2DM and NAFLD patients; cited from earlier work
miR-22 [10] = test: miR-22 induction by bile acids, FXR agonist and vitamin D3; conditions: unpublished data
primary liver cancer = conditions: cited from earlier work
[11] = FXR KO mice, depletion of BAs; cited from earlier work
[12] = FXR KO mice: steatohepatitis and liver cancer; format: in vivo; conditions: 10 months old Western diet-fed FXR KO mice; 100 mg/liter in drinking water for three months
Description: The treatment was started when mice were seven months old. Mice were sacrificed when they were ten months old. n>4.
FXR KO mice have increased insulin resistance accompanied by elevated BAs with increased DCA and develop liver cancer when they are about 15 months old (FIG. 24). […] In addition, FXR KO mice also had reduced Erysipelotrichaceae and Coriobacteriaceae, which have many beneficial health effects (FIG. 25A). Consistently, FXR KO mice had reduced bcoA, which generates butyrate, and increased baiJ and dsrA that generate DCA and hydrogen sulfide, respectively (FIG. 25B). Moreover, 10 months old Western diet-fed FXR KO mice developed severe steatohepatitis with massive hepatic lymphocyte infiltration, which could be eliminated by polymyxin B. This exciting finding clearly indicated the role of Gram-negative bacteria in contributing to hepatic inflammation (FIG. 26). […] Because it takes about 10-15 months for FXR KO mice to develop liver cancer, we will introduce Met/β-catenin plasmids by using sleep beauty transposon system into FXR KO mice via hydrodynamic tail vein injection to induce liver cancer. In wild type mice, these plasmids, which have been provided by Dr. Xin Chen at UCSF, can induce liver cancer within a month post-injection. In the presence of dysbiosis and dysregulated BAs, liver cancer formation is expected to be facilitated and may occur even earlier. […]

Q: What does the source list for `CC1=C(/C=C/C(C)=C/C=C/C(C)=C/C(=O)O)C(C)(C)CCC1` [RA, all-trans retinoic acid]?
A: Apoptosis of liver cancer cells [1]: not as effective as fenretinide in inducing apoptosis; Protein levels of HDAC1, HDAC4, SIRT1, and cyclin A2 (CCNA2) [2]: reduced HDAC1, HDAC4, SIRT1, and CCNA2 protein levels; Cell viability (DLD-1 colon cancer cells): reduced cell viability; Recruitment of HDAC4 and SIRT1 to the RARB gene (ChIP-qPCR) (RARB and NUR77 genes): not; RARB (RARβ) expression / transcription [3]: upregulated; Microbiota phenotype, metabolism and liver regeneration ([4]; RA prior to liver resection): lean microbiota phenotype, improved metabolism as well as accelerated liver regeneration; Ratio of Firmicutes to Bacteroidetes ([4]; one day after liver resection): reduced ratio of Firmicutes to Bacteroidetes; NUR77 binding to BRE and CCND2 promoter regions and their mRNA levels (NUR77 transcriptional activity) (NUR77): not RA alone; Induction and localization of NUR77 and RARβ (immunostaining) (NUR77 and RARβ): modestly induced both receptors in the nucleus; Expression of Gpr41 and Gpr43 [5]: could induce the expression; miR-22 expression level (miR-22 [6]): upregulated; also recorded: induced miR-22 expression; also recorded: could induce miR-22; also recorded: increased miR-22 level

Q: Which “Apoptosis of Huh7 cells” value [7] does the source give for `O=C(CCCCCN1C(=O)c2cccc3cccc(c23)C1=O)NO` [Scriptaid] here?
A: Its value is “induced apoptosis of Huh7 cells”.

Q: With `CC1=C(/C=C/C(C)=C/C=C/C(C)=C/C(=O)Nc2ccc(O)cc2)C(C)(C)CCC1` [fenretinide, N-(4-hydroxyphenyl) retinamide] as the compound, how does the “Apoptotic effect in HepG2” value ([1]; HepG2 vs. Huh7 and Hep3B) read?
A: Its value is “resistant to the apoptotic effect”.

Q: What about the “Apoptosis of liver cancer cells” value [1] of the same compound?
A: The value was “effectively induces apoptosis of liver cancer cells; also recorded: much better apoptosis inducer than RA”.

Q: What about the Tumor response ([8]; NCI case report, advanced cutaneous T-cell lymphoma patient) of the same compound?
A: Its Tumor response is “tumor response”.

Q: And the “Stabilization of the disease” value ([8]; Phase II, small cell lung cancer)?
A: The value was 24 % of the patients.

Q: And the Tolerability ([8]; breast cancer chemoprevention study (3000 patients, 5 year), Phase II small cell lung cancer)?
A: The Tolerability was “well tolerated in humans; also recorded: well tolerated in patients with small cell lung cancer”.

Q: And the “Apoptosis of Huh7 cells” value [7]?
A: The value was “induced apoptosis of Huh7 cells”.

Q: What does the source list for `CC[C@H]1[C@@H](O)[C@@H]2[C@H](CC[C@]3(C)[C@@H]([C@H](C)CCC(=O)O)CC[C@@H]23)[C@@]2(C)CC[C@@H](O)C[C@@H]12` [obetacholic acid]?
A: Insulin sensitivity, liver inflammation and fibrosis [9]: improves insulin sensitivity and reduces liver inflammation as well as fibrosis; miR-22 induction (miR-22 [10]): effective in inducing miR-22

Q: Which Increase of survival (primary liver cancer) does the source give for `CNC(=O)c1cc(Oc2ccc(NC(=O)Nc3ccc(Cl)c(C(F)(F)F)c3)cc2)ccn1` [sorafenib] here?
A: Its Increase of survival is 6 months.

Q: Which Liver cancer formation [11] does the source give for cholestyramine here?
A: The Liver cancer formation was “prevented liver cancer formation”.

Q: Which “Severe steatohepatitis with massive hepatic lymphocyte infiltration” value [12] does the source give for polymyxin B here?
A: The value was “eliminated”.
